Data taken from ChEMBL document CHEMBL5537162, “Development of Antibacterial Peptides with Membrane Disruption and Folate Pathway Inhibitory Activities against Methicillin-Resistant Staphylococcus aureus” (J Med Chem, 2024).
Calls of active or inactive are those of the source. The rule behind the calls is not given here.

Assays:
Staphylococcus aureus [1] = assay: Antibacterial activity against methicillin-resistant Staphylococcus aureus 18908 assessed as bacterial growth inhibition incubated for 24 hrs by CLSI based micro-broth dilution assay; format: functional
Staphylococcus aureus [2] = assay: Antibacterial activity against methicillin-resistant Staphylococcus aureus 19423 assessed as bacterial growth inhibition incubated for 24 hrs by CLSI based micro-broth dilution assay; format: functional
Staphylococcus aureus [3] = assay: Antibacterial activity against Staphylococcus aureus 25923 assessed as bacterial growth inhibition incubated for 24 hrs by CLSI based micro-broth dilution assay; format: functional
Staphylococcus aureus [4] = assay: Antibacterial activity against Staphylococcus aureus 6538 assessed as bacterial growth inhibition incubated for 24 hrs by CLSI based micro-broth dilution assay; format: functional
Staphylococcus aureus [5] = assay: Drug resistance, ratio of MIC for methicillin-resistant Staphylococcus aureus after 1 week exposure to MIC for methicillin-resistant Staphylococcus aureus during first exposure; format: functional; settings: time 1 weeks
Staphylococcus aureus [6] = assay: Drug resistance, ratio of MIC for methicillin-resistant Staphylococcus aureus after 3 days exposure to MIC for methicillin-resistant Staphylococcus aureus during first exposure; format: functional; settings: time 3 day
[7] = Stability in mouse blood plasma measured for 12 hrs by RP-HPLC analysis; format: ADME, cell-free; settings: read-out: Stability
[8] = molecular target: T1, Monofunctional C1-tetrahydrofolate synthase, mitochondrial (Homo sapiens) (UniProt Q6UB35); assay: Inhibition of FTHFS (unknown origin) expressed in Escherichia coli BL21 (DE3) incubated for 10 mins by UV-spectrophotometer analysis
T1 sequence (whole entry): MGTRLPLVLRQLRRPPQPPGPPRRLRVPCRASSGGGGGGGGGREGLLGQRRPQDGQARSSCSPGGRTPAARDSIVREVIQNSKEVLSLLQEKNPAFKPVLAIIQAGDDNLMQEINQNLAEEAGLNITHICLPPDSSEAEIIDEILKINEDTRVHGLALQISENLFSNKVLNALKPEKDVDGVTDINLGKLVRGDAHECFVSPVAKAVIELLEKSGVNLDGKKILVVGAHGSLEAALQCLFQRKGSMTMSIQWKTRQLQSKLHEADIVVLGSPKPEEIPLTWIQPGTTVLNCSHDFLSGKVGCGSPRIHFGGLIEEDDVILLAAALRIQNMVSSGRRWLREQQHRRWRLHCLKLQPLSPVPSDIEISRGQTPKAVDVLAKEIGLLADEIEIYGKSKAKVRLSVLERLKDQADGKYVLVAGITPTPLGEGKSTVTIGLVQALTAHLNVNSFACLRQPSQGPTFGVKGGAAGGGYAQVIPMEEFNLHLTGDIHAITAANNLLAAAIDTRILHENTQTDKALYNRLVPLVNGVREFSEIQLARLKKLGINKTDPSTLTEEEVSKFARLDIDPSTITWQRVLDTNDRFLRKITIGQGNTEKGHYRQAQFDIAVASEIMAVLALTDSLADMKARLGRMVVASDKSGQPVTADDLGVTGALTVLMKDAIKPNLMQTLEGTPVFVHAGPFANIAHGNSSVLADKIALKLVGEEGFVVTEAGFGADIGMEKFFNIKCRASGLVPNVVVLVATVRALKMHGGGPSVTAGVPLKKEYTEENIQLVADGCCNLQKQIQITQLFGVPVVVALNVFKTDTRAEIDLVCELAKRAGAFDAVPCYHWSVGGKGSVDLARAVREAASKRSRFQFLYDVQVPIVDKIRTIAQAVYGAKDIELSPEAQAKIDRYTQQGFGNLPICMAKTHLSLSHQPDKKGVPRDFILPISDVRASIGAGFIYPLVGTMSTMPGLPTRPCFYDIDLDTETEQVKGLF

Staphylococcus aureus [9] = assay: Antibacterial activity against Staphylococcus aureus assessed as reduction in bacterial growth in presence of PABA; format: functional, organism-based
Staphylococcus aureus [10] = assay: Antibacterial activity against Methicillin-resistant Staphylococcus aureus infected in ICR mouse skin infection model assessed as reduction in skin abscess volume at 40 mg/kg, sc measured upto 10 days; format: functional, organism-based; settings: time <= 10.0 day
Staphylococcus aureus [11] = assay: Antibacterial activity against Methicillin-resistant Staphylococcus aureus infected in ICR mouse skin infection model assessed as reduction in bacterial content at 40 mg/kg, sc measured upto 10 days; format: functional, organism-based; settings: time <= 10.0 day
Staphylococcus aureus [12] = assay: Antibacterial activity against Methicillin-resistant Staphylococcus aureus infected in ICR mouse skin infection model assessed as reduction in inflammatory infiltration at 40 mg/kg, sc by H and E staining based microscopic analysis; format: functional, organism-based

H-RRRLARRLIFFIRRAW-NH2
MIC (Staphylococcus aureus [1]): 3 µM | MIC (Staphylococcus aureus [2]): 6 µM | MIC (Staphylococcus aureus [3]): 3 µM | MIC (Staphylococcus aureus [4]): 3 µM | Ratio (Staphylococcus aureus [5]): 8 | Ratio (Staphylococcus aureus [6]): 50 | remaining at 12 h [7]: 20% | inhibition [8]: Active | Activity (Staphylococcus aureus [9]): Active | Activity (Staphylococcus aureus [10]): Active | Activity (Staphylococcus aureus [11]): Active | Activity (Staphylococcus aureus [12]): Active

H-LARVARRVIRFIRRAW-NH2
MIC (Staphylococcus aureus [1]): 3 µM | MIC (Staphylococcus aureus [2]): 6 µM | MIC (Staphylococcus aureus [3]): 3 µM | MIC (Staphylococcus aureus [4]): 3 µM | Ratio (Staphylococcus aureus [5]): 4 | Ratio (Staphylococcus aureus [6]): 50 | remaining at 12 h [7]: 20% | inhibition [8]: Active | Activity (Staphylococcus aureus [9]): Active | Activity (Staphylococcus aureus [10]): Active | Activity (Staphylococcus aureus [11]): Active | Activity (Staphylococcus aureus [12]): Active
